What follows are molecules tested against T1, Human full-length Hsp90 (Homo sapiens, UniProt P08238) (assay: Fluorescence polarization assay (competitive binding to HSP90, probe RBT0045864-FAM)). Settings: not given.
T1 construct: E. coli expressed human full-length HSP90 protein, purified >95%; made in house; host or cells: E. coli
In short: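 Competitive fluorescence polarization: test compound displaces FAM-labelled probe RBT0045864-FAM (200 nM working solution) from HSP90 after equilibration, and anisotropy change is measured. Compounds serially diluted; BSA-containing buffer; standard compound as positive control; Z′ from zero and positive controls.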

T1 sequence (P08238 whole entry): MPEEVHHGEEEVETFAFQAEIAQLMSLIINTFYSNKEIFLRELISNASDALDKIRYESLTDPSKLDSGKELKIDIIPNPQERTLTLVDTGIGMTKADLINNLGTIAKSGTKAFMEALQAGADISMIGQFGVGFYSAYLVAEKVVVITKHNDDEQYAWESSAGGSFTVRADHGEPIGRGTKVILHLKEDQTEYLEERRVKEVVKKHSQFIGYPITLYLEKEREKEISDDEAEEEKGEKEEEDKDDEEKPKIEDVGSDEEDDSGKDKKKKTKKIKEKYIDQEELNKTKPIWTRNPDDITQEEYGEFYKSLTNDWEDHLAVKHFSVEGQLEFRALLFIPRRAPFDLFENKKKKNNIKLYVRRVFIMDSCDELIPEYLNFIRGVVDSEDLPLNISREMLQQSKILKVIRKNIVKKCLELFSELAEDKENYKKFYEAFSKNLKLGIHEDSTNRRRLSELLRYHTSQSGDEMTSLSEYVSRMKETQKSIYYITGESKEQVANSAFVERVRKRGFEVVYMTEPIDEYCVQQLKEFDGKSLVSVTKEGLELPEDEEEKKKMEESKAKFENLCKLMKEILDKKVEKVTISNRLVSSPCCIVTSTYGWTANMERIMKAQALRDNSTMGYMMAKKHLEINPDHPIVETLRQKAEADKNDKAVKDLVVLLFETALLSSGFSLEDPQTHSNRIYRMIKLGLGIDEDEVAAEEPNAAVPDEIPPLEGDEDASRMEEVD

Compound | IC50 [µM]
CCNC(=O)c1cc2c(-c3cc(OCC(N)=O)c(Cl)cc3Cl)nc(N)nc2s1 [Example 267] | < 10
CCNC(=O)c1cc2c(-c3cc(OCCN(CC)CC)c(Cl)cc3Cl)nc(N)nc2s1 [Example 235, 2-Amino-4-[2,4-dichloro-5-(2-diethylamino-ethoxy)-phenyl]-thieno[2,3-d]pyrimidine-6-carboxylic acid ethyl amide] | < 10
CCNC(=O)c1cc2c(-c3cc(OCCN4CCN(C)CC4)c(Cl)cc3Cl)nc(N)nc2s1 [Example 246] | < 10
CCN(CC)CCOc1cc(-c2nc(N)nc3sc(C(=O)NC4CC4)cc23)c(Cl)cc1Cl [Example 251] | < 10

Same assay, conditions: fluorescence polarization assay, activity range; read-out: Hsp90 FP IC50

Compound | IC50 [µM]
CCOC(=O)c1cc2c(-c3ccc(CC)cc3Cl)nc(N)nc2s1 [Example 175] | < 10
CCNC(=O)c1cc2c(-c3cc(OCC(C)CN(C)C)c(Cl)cc3Cl)nc(N)nc2s1 (stereo not drawn) [Example 256] | < 10
CCNC(=O)c1cc2c(-c3cc(OCCN4CCC(F)CC4)c(Cl)cc3Cl)nc(N)nc2s1 [Example 249] | < 10
CCC(C)NC(=O)c1cc2c(-c3ccccc3)nc(N)nc2s1 (stereo not drawn) [Example 59] | > 10
CCNC(=O)c1cc2c(-c3cc(CNCCCOC)ccc3C)nc(N)nc2s1 [Example 202] | < 10
CCNC(=O)c1cc2c(-c3cc(C=O)ccc3C)nc(N)nc2s1 [Example 170] | < 10
CCOC(=O)c1cc2c(C(=O)c3ccccc3C)nc(N)nc2s1 [Example 311] | < 10
CCOC(=O)c1cc2c(Oc3ccccc3)nc(N)nc2s1 [Example 19] | > 10
CCNC(=O)c1cc2c(-c3cc(CNCc4ccc(C)o4)ccc3C)nc(N)nc2s1 [Example 211] | < 10
CCNC(=O)c1cc2c(-c3cc(OCC(=O)N4CCOCC4)c(Cl)cc3Cl)nc(N)nc2s1 [Example 271] | < 10
Nc1nc(-c2ccccc2)c2cc(C(=O)NC3CCCC3)sc2n1 [Example 62] | < 10
Nc1nc(-c2ccc(Cl)cc2Cl)c2cc(C(=O)NCc3ccc(F)cc3)sc2n1 [Example 120] | < 10
C=C(c1ccccc1)c1nc(N)nc2sc(C(=O)NCC)cc12 [Example 283] | < 10
CCOC(=O)c1cc2c(-c3ccc(OC(C)C)cc3)nc(N)nc2s1 [Example 5] | > 10
CCOC(=O)c1cc2c(-c3ccc(OCC)cc3)nc(N)nc2s1 [Example 8] | < 10
CC=Cc1nc(N)nc2sc(C(=O)OCC)cc12 [Example 291] | > 10
CCCOc1ccc(-c2nc(N)nc3sc(C(=O)OCC)cc23)c(C)c1 [Example 185, 2-Amino-4-(2-methyl-4-propoxy-phenyl)-thieno[2,3-d]pyrimidine-6-carboxylic acid ethyl ester] | < 10
CCOC(=O)c1sc2nc(N)nc(-c3ccccc3)c2c1N [Example 74, 2,5-Diamino-4-phenyl-thieno[2,3-d]pyrimidine-6-carboxylic acid ethyl ester] | > 10
CCOC(=O)c1cc2c(/C=C/c3ccccc3)nc(N)nc2s1 [Example 278] | < 10
CCOC(=O)c1cc2c(-c3cncc4ccccc34)nc(N)nc2s1 [Example 293] | < 10
Cc1ccc(-c2nc(N)nc3sc(C(=O)NCCCN(C)C)cc23)c(C)c1 [Example 83] | < 10
Nc1nc(-c2ccc(Cl)cc2Cl)c2cc(C(=O)NCCCS(=O)(=O)O)sc2n1 [Example 144] | < 10
CCNC(=O)c1cc2c(-c3cc(CNCc4cccs4)ccc3C)nc(N)nc2s1 [Example 201] | < 10
CCOC(=O)c1cc2c(-c3c[nH]c4ccccc34)nc(N)nc2s1 [Example 294] | > 10
CCOC(=O)c1cc2c(C(=O)c3ccc(Cl)cc3)nc(N)nc2s1 [Example 295, 2-Amino-4-(4-chloro-benzoyl)-thieno[2,3-d]pyrimidine-6-carboxylic acid ethyl ester] | < 10
CCNC(=O)c1cc2c(-c3ccc(C#N)cc3Cl)nc(N)nc2s1 [Example 172] | < 10

Compound | IC50 [µM]
CCOC(=O)c1cc2c(CCc3ccccc3)nc(N)nc2s1 [Example 275, 2-Amino-4-phenethyl-thieno[2,3-d]pyrimidine-6-carboxylic acid ethyl ester] | < 10
CCOC(=O)c1cc2c(-c3cccc(C(N)=O)c3)nc(N)nc2s1 [Example 40] | > 10
CCN(CC)CCOc1cc(-c2nc(N)nc3sc(C(=O)NCCO)cc23)c(Cl)cc1Cl [Example 258] | < 10
CCNC(=O)c1cc2c(-c3cc(CNCc4cccs4)c(C)cc3C)nc(N)nc2s1 [Example 233] | < 10
CCOC(=O)c1cc2c(-c3ccc(OCC(=O)O)cc3C)nc(N)nc2s1 [Example 193] | > 10
C=C(c1ccccc1)c1nc(N)nc2sc(C(=O)OCC)cc12 [Example 276] | < 10
CCOC(=O)c1cc2c(-c3cc(OCc4ccccc4)c(Cl)cc3Cl)nc(N)nc2s1 [Example 239] | < 10
CS(=O)(=O)c1ccc(CNC(=O)c2cc3c(-c4ccc(Cl)cc4Cl)nc(N)nc3s2)cc1 [Example 117] | < 10
CCNC(=O)c1cc2c(-c3cc(CNC4CCCC4)ccc3C)nc(N)nc2s1 [Example 199] | < 10
CCOC(=O)c1cc2c(C(=O)c3cccc(F)c3)nc(N)nc2s1 [Example 303] | < 10
CC(C)NC(=O)c1cc2c(-c3cc(O)c(Cl)cc3Cl)nc(N)nc2s1 [Example 248] | < 10
CCOC(=O)c1sc2nc(N)nc(-c3ccccc3)c2c1Br [Example 99] | > 10
CCOC(=O)c1cc2c(-c3ccc(CN4CCCCC4)cc3)nc(N)nc2s1 [Example 33, 2-Amino-4-(4-piperidin-1-ylmethyl-phenyl)-thieno[2,3-d]pyrimidine-6-carboxylic acid ethyl ester] | > 10
CNC(=O)c1cc2c(N(C)Cc3ccccc3)nc(N)nc2s1 [Example 67] | > 10
CCCCNCc1ccc(C)c(-c2nc(N)nc3sc(C(=O)NCC)cc23)c1 [Example 213] | < 10
CCOC(=O)c1cc2c(C(C#N)c3ccc(OC)cc3)nc(N)nc2s1 (stereo not drawn) [Example 318] | > 10
CCOC(=O)c1cc2c(C(=O)c3ccc(F)cc3)nc(N)nc2s1 [Example 305] | < 10
CSCC[C@H](NC(=O)c1cc2c(-c3ccc(Cl)cc3Cl)nc(N)nc2s1)C(N)=O [Example 166] | < 10
CCOC(=O)c1cc2c(C(=O)c3cccc(Cl)c3)nc(N)nc2s1 [Example 304] | < 10
CCOC(=O)c1cc2c(Nc3ccccc3)nc(N)nc2s1 [Example 28] | > 10
Nc1nc(-c2ccc(Cl)cc2Cl)c2cc(C(=O)NCC(F)(F)F)sc2n1 [Example 134] | < 10
CCNC(=O)c1cc2c(-c3cc(C)c(Br)cc3C)nc(N)nc2s1 [Example 149] | < 10
Nc1nc(-c2ccc(Cl)cc2Cl)c2cc(C(=O)NCCO)sc2n1 [Example 136] | < 10
Nc1nc(-c2ccc(Cl)cc2Cl)c2cc(C(=O)Nc3cccc(Cl)c3)sc2n1 [Example 109] | < 10
Nc1nc(-c2ccc(Cl)cc2Cl)c2cc(C(=O)NCCCn3ccnc3)sc2n1 [Example 146] | < 10
Nc1nc(-c2ccc(Cl)cc2Cl)c2cc(C(=O)NCc3ccc(S(N)(=O)=O)cc3)sc2n1 [Example 116] | < 10

Compound | IC50 [µM]
CCCNC(=O)c1cc2c(-c3ccccc3)nc(N)nc2s1 [Example 47] | < 10
COc1ccc(NC(=O)c2cc3c(-c4ccc(Cl)cc4Cl)nc(N)nc3s2)cc1 [Example 113] | < 10
CCOC(=O)c1cc2c(C(C)c3ccccc3)nc(N)nc2s1 (stereo not drawn) [Example 285] | < 10
CCCN(C)C(=O)c1cc2c(-c3ccc(C)cc3C)nc(N)nc2s1 [Example 93] | > 10
Nc1nc(-c2ccc(Cl)cc2Cl)c2cc(C(=O)NCc3ccccn3)sc2n1 [Example 154] | < 10
CCCNC(=O)c1ccc(C)c(-c2nc(N)nc3sc(C(=O)OCC)cc23)c1 [Example 181] | < 10
CCOC(=O)c1cc2c(-c3cccnc3)nc(N)nc2s1 [Example 94] | > 10
Nc1nc(-c2ccccc2)c2cc(C(=O)NCCc3ccccc3)sc2n1 [Example 49] | > 10
COc1ccc(CNC(=O)c2cc3c(-c4ccc(Cl)cc4Cl)nc(N)nc3s2)cc1 [Example 118] | < 10
CCCNC(=O)c1cc2c(-c3ccc(C)cc3C)nc(N)nc2s1 [Example 61] | < 10
CCOC(=O)c1cc2c(-c3ccc(C#N)cc3Cl)nc(N)nc2s1 [Example 148] | < 10
CCOC(=O)c1cc2c(-c3ccc(Cl)cc3Cl)nc(N)nc2s1 [Example 89] | < 10
CCNC(=O)c1cc2c(-c3ccc(Cl)cc3C)nc(N)nc2s1 [Example 151] | < 10
CN(C)CCCNC(=O)c1cc2c(-c3ccc(Cl)cc3Cl)nc(N)nc2s1 [Example 102] | < 10
C[C@H](NC(=O)c1cc2c(-c3ccc(Cl)cc3Cl)nc(N)nc2s1)c1ccccc1 [Example 139] | < 10
Cc1ccc(-c2nc(N)nc3sc(C(=O)NCc4ccccc4)cc23)c(C)c1 [Example 92] | < 10
CCNC(=O)c1ccc(C)c(-c2nc(N)nc3sc(C(=O)NCC)cc23)c1 [Example 180] | < 10
CCOC(=O)c1cc2c(C(=O)c3ccc(OC)cc3)nc(N)nc2s1 [Example 297] | < 10
Nc1nc(-c2ccc(Cl)cc2Cl)c2cc(C(=O)NC(CO)CO)sc2n1 [Example 127] | < 10
CCOC(=O)c1cc2c(/C=C/C(C)(C)C)nc(N)nc2s1 [Example 289] | > 10
CCOC(=O)c1cc2c(-c3ccccn3)nc(N)nc2s1 [Example 104] | > 10
CCNC(=O)c1cc2c(-c3cc(OCc4noc(-c5ccccc5OC)n4)c(Cl)cc3Cl)nc(N)nc2s1 [Example 269] | < 10
NC(=O)CNC(=O)c1cc2c(-c3ccccc3)nc(N)nc2s1 [Example 71] | < 10
CCOC(=O)c1cc2c(C(=O)c3cc(C)cc(C)c3)nc(N)nc2s1 [Example 300] | < 10
Nc1nc(-c2ccc(Cl)cc2Cl)c2cc(C(=O)NCC3CCCO3)sc2n1 (stereo not drawn) [Example 132] | < 10

— patent US8642594B2, “Substituted thieno[2,3-d]pyrimidines as HSP90 inhibitors” (Vernalis (R&D) Limited, priority 2003, dated 2014)
